Target: T1, hP2X3 (human Purinergic P2X receptors subtype 3), clone B (Homo sapiens, UniProt P56373)
T1 sequence (P56373 1-397): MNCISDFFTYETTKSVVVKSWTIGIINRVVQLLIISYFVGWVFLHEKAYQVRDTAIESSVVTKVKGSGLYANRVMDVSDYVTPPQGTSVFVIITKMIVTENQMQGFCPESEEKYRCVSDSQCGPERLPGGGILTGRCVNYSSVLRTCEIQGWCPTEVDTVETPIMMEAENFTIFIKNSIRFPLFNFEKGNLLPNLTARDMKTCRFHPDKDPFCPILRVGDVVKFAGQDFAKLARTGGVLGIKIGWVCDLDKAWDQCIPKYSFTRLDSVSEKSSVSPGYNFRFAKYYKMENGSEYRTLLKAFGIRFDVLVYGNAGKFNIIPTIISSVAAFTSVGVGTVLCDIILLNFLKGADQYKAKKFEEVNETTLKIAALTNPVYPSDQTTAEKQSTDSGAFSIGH
Assay: hP2X3 FLIPR calcium (Fluo-4) antagonist assay, clone B
Conditions: Human P2X3 FLIPR Clone B IC50 (nM), RLE cells expressing hP2X3 clone B (NM_002559); agonist 500 nM α,β-methylene-ATP

| Structure (SMILES) | IC50 [nM] |
| --- | --- |
| CC(C)N1Cc2c(NCc3cnc4ccccc4c3)nc(NCCS(C)(=O)=O)nc2C1=O [Example 215, 6-isopropyl-2-(2-methylsulfonylethylamino)-4-(3-quinolylmethylamino)-5H-pyrrolo[3,4-d]pyrimidin-7-one] | 2000 |
| CC(C)N1Cc2c(NCc3cnc4ccccc4c3)nc(N3CCC(F)(F)C3)nc2C1=O [Example 216, 2-(3,3-difluoropyrrolidin-1-yl)-6-isopropyl-4-(3-quinolymethylamino)-5H-pyrrolo[3,4-d]pyrimidin-7-one] | 680 |
| CC(C)N1Cc2c(NCc3cnc4ccccc4c3)nc(N(C)CC3CCCO3)nc2C1=O (stereo not drawn) [Example 217, 6-isopropyl-2-(methyl-(tetrahydrofuran-2-ylmethyl)amino)-4-(3-quinolylmethylamino)-5H-pyrrolo[3,4-d]pyrimidin-7-one] | 5900 |
| CC(C)N1Cc2c(NCc3cnc4ccccc4c3)nc(N3CCC(N(C)C)CC3)nc2C1=O [Example 218] | 7800 |
| CC(C)N1Cc2c(NCc3cnc4ccccc4c3)nc(NCC3CCOCC3)nc2C1=O [Example 219, 6-(1-methylethyl)-4-[(quinolin-3-ylmethyl)amino]-2-[(tetrahydro-2H-pyran-4-ylmethyl)amino]-5,6-dihydro-7H-pyrrolo[3,4-d]pyrimidin-7-one] | 8400 |
| CC(C)N1Cc2c(NCc3cnc4ccccc4c3)nc(N(C)C)nc2C1=O [Example 220, 2-(dimethylamino)-6-(1-methylethyl)-4-[(quinolin-3-ylmethyl)amino]-5,6-dihydro-7H-pyrrolo[3,4-d]pyrimidin-7-one] | 9600 |
| CC(C)N1Cc2c(NCc3cnc4ccccc4c3)nc(N3CCN(C(=O)N(C)C)CC3)nc2C1=O [Example 221, N,N-dimethyl-4-{6-(1-methylethyl)-7-oxo-4-[(quinolin-3-ylmethyl)amino]-6,7-dihydro-5H-pyrrolo[3,4-d]pyrimidin-2-yl}piperazine-1-carboxamide] | 5800 |
| CC(C)N1Cc2c(NCc3cnc4ccccc4c3)nc(N3CCN(C(=O)C4CC4)CC3)nc2C1=O [Example 222, 2-[4-(cyclopropylcarbonyl)piperazin-1-yl]-6-(1-methylethyl)-4-[(quinolin-3-ylmethyl)amino]-5,6-dihydro-7H-pyrrolo[3,4-d]pyrimidin-7-one] | 6300 |
| CCN1CCN(c2cc(C(F)(F)F)ccc2CNc2nc(N3CCN(C(C)=O)CC3)nc3c2CN(C(C)C)C3=O)CC1 [Example 223, 2-(4-acetylpiperazin-1-yl)-4-(2-(4-ethylpiperazin-1-yl)-4-(trifluoromethyl)benzylamino)-6-isopropyl-5H-pyrrolo[3,4-d]pyrimidin-7(6H)-one] | 620 |
| CC(=O)N1CCN(c2nc(NC3CCN(c4cccc(C)c4)C3)c3c(n2)C(=O)N(C(C)C)C3)CC1 (stereo not drawn) [Example 224, 2-(4-acetylpiperazin-1-yl)-6-isopropyl-4-(1-m-tolylpyrrolidin-3-ylamino)-5H-pyrrolo[3,4-d]pyrimidin-7(6H)-one] | 4100 |
| CC(=O)N1CCN(c2nc(N[C@H](C)c3ccccc3C(F)(F)F)c3c(n2)C(=O)N(C(C)C)C3)CC1 [Example 226, (R)-2-(4-acetylpiperazin-1-yl)-6-isopropyl-4-(1-(2-(trifluoromethyl)phenyl)ethylamino)-5H-pyrrolo[3,4-d]pyrimidin-7(6H)-one] | 4400 |
| COc1cccc([C@@H](C)Nc2nc(N3CCN(C(C)=O)CC3)nc3c2CN(C(C)C)C3=O)c1 [Example 227, (R)-2-(4-acetylpiperazin-1-yl)-6-isopropyl-4-(1-(3-methoxyphenyl)ethylamino)-5H-pyrrolo[3,4-d]pyrimidin-7(6H)-one] | 8500 |
| CC(=O)N1CCN(c2nc(NCc3ccc(-c4ccccc4)nc3)c3c(n2)C(=O)N(C(C)C)C3)CC1 [Example 228, 2-(4-acetylpiperazin-1-yl)-6-isopropyl-4-((6-phenylpyridin-3-yl)methylamino)-5H-pyrrolo[3,4-d]pyrimidin-7(6H)-one] | 8800 |
| CC(=O)N1CCN(c2nc(N[C@@H](C)c3cnc4ccccc4c3)c3c(n2)C(=O)N(C(C)C)C3)CC1 [Example 234, (S)-2-(4-acetylpiperazin-1-yl)-6-isopropyl-4-(1-(quinolin-3-yl)ethylamino)-5H-pyrrolo[3,4-d]pyrimidin-7(6H)-one] | 1100 |
| CC(=O)N1CCN(c2nc(NCc3cc4ccccc4n3C)c3c(n2)C(=O)N(C(C)C)C3)CC1 [Example 237, 2-(4-acetylpiperazin-1-yl)-6-isopropyl-4-((1-methyl-1H-indol-2-yl)methylamino)-5H-pyrrolo[3,4-d]pyrimidin-7(6H)-one] | 500 |
| CC(=O)N1CCN(c2nc3c(c(N(C)Cc4ccc5ncccc5c4)n2)CN(C(C)C)C3=O)CC1 [Example 239, 2-(4-acetylpiperazin-1-yl)-6-isopropyl-4-(methyl(quinolin-6-ylmethyl)amino)-5H-pyrrolo[3,4-d]pyrimidin-7(6H)-one] | 1200 |
| COc1ccc(CNc2nc(N3CCN(C(C)=O)CC3)nc3c2CN(C(C)C)C3=O)c2cccnc12 [Example 240, 2-(4-acetylpiperazin-1-yl)-6-isopropyl-4-((8-methoxyquinolin-5-yl)methylamino)-5H-pyrrolo[3,4-d]pyrimidin-7(6H)-one] | 1500 |
| CC(=O)N1CCN(c2nc(NCc3cc4ccccc4nc3C)c3c(n2)C(=O)N(C(C)C)C3)CC1 [Example 241, 2-(4-acetylpiperazin-1-yl)-6-isopropyl-4-((2-methylquinolin-3-yl)methylamino)-5H-pyrrolo[3,4-d]pyrimidin-7(6H)-one] | 68 |
| CC(=O)N1CCN(c2nc(N[C@@H](C)c3ccc4ncccc4c3)c3c(n2)C(=O)N(C(C)C)C3)CC1 [Example 244, (S)-2-(4-acetylpiperazin-1-yl)-6-isopropyl-4-(1-(quinolin-6-yl)ethylamino)-5H-pyrrolo[3,4-d]pyrimidin-7(6H)-one] | 6500 |
| CC(=O)N1CCN(c2nc(NCc3ccc4ccccc4n3)c3c(n2)C(=O)N(C(C)C)C3)CC1 [Example 248, 2-(4-acetylpiperazin-1-yl)-6-isopropyl-4-(quinolin-2-ylmethylamino)-5H-pyrrolo[3,4-d]pyrimidin-7(6H)-one] | 6300 |
| CC(=O)N1CCN(c2nc3c(c(N(C)Cc4ccc5ccccc5n4)n2)CN(C(C)C)C3=O)CC1 [Example 249, 2-(4-acetylpiperazin-1-yl)-6-isopropyl-4-(methyl(quinolin-2-ylmethyl)amino)-5H-pyrrolo[3,4-d]pyrimidin-7(6H)-one] | 6000 |
| CC(=O)N1CCN(c2nc(N[C@H](C)c3ccc(OC(CF)CF)cc3)c3c(n2)C(=O)N(C(C)C)C3)CC1 [Example 250, (R)-2-(4-acetylpiperazin-1-yl)-4-(1-(4-(1,3-difluoropropan-2-yloxy)phenyl)ethylamino)-6-isopropyl-5H-pyrrolo[3,4-d]pyrimidin-7(6H)-one] | 430 |
| CC(=O)N1CCN(c2nc(N[C@@H](C)c3ccc(OC(CF)CF)cc3)c3c(n2)C(=O)N(C(C)C)C3)CC1 [Example 251, (S)-2-(4-acetylpiperazin-1-yl)-4-(1-(4-(1,3-difluoropropan-2-yloxy)phenyl)ethylamino)-6-isopropyl-5H-pyrrolo[3,4-d]pyrimidin-7(6H)-one] | 5200 |
| CC(=O)N1CCN(c2nc3c(c(N(Cc4cc5ccccc5cn4)C(C)C)n2)CN(C(C)C)C3=O)CC1 [Example 254, 2-(4-acetylpiperazin-1-yl)-6-isopropyl-4-(isopropyl(isoquinolin-3-ylmethyl)amino)-5H-pyrrolo[3,4-d]pyrimidin-7(6H)-one] | 75 |
| CC(=O)N1CCN(c2nc3c(c(N(Cc4cc5ccccc5cn4)CC(F)F)n2)CN(C(C)C)C3=O)CC1 [Example 256, 2-(4-acetylpiperazin-1-yl)-4-((2,2-difluoroethyl)(isoquinolin-3-ylmethyl)amino)-6-isopropyl-5H-pyrrolo[3,4-d]pyrimidin-7(6H)-one] | 46 |
| CC(=O)N1CCN(c2nc3c(c(N(Cc4cc5ccccc5cn4)CC(F)(F)F)n2)CN(C(C)C)C3=O)CC1 [Example 264, 2-(4-acetylpiperazin-1-yl)-6-isopropyl-4-((isoquinolin-3-ylmethyl)(2,2,2-trifluoroethyl)amino)-5H-pyrrolo[3,4-d]pyrimidin-7(6H)-one] | 2900 |
| CC(=O)N1CCN(c2nc3c(c(N4CCCCC4Cc4ccccc4)n2)CN(C(C)C)C3=O)CC1 (stereo not drawn) [Example 266, 4-(4-acetylpiperazin-1-yl)-2-(2-benzyl-1-piperidyl)-8-propan-2-yl-3,5,8-triazabicyclo[4.3.0]nona-1,3,5-trien-7-one] | 1000 |
| CC(=O)N1CCN(c2nc3c(c(N4CCCC4c4ccc(N(C)C)cc4)n2)CN(C(C)C)C3=O)CC1 (stereo not drawn) [Example 267, 4-(4-acetylpiperazin-1-yl)-2-[2-(4-dimethylaminophenyl)pyrrolidin-1-yl]-8-propan-2-yl-3,5,8-triazabicyclo[4.3.0]nona-1,3,5-trien-7-one] | 480 |
| CC(=O)N1CCN(c2nc3c(c(N4CCCC4c4cccc(C)c4)n2)CN(C(C)C)C3=O)CC1 (stereo not drawn) [Example 269, 4-(4-acetylpiperazin-1-yl)-2-[2-(3-methylphenyl)pyrrolidin-1-yl]-8-propan-2-yl-3,5,8-triazabicyclo[4.3.0]nona-2,4,10-trien-7-one] | 740 |
| CC(=O)N1CCN(c2nc3c(c(N4CCCC4CCc4ccccc4)n2)CN(C(C)C)C3=O)CC1 (stereo not drawn) [Example 271, 4-(4-acetylpiperazin-1-yl)-2-(2-phenethylpyrrolidin-1-yl)-8-propan-2-yl-3,5,8-triazabicyclo[4.3.0]nona-1,3,5-trien-7-one] | 870 |

From patent US20090099195A1 (ASTRAZENECA AB, priority 2007, published 2009)
